Experimental data: patent US12077503B2, “Substituted cyclic amides and their use as herbicides” (FMC CORPORATION, priority 2015, dated 2024)

Tests used:
Assay type in all cases: in vivo
[1] = test system: barnyardgrass (Echinochloa crus-galli); assay: Test G Pre-Emergence Protocol; conditions: Echinochloa crus-galli, pre-emergence, 312 h, evaluated after 13 days; for pest or weed control at 15.625 g/ha: 15.625 g ai/ha, read-out: Barnyard grass damage rating (100=total damage to plant; 0=no damage to plant); for pest or weed control at 62.5 g/ha: 62.5 g ai/ha, 100=total damage to plant, 0=no damage to plant, read-out: plant damage rating, Barnyardgrass; for pest or weed control at 250 g/ha: 250 g ai/ha, read-out: Barnyardgrass damage rating (100=total damage to plant; 0=no damage to plant)
Method in brief: (§1)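 Pots of seeds in standard soil were grown for one day in a glasshouse (24/16 °C day/night, 14 h light, 65% humidity), then sprayed with compound in acetone/water 50:50 with 0.5% Tween 20 at 15.625, 62.5 or 250 g/ha. Damage was scored after 13 days on a 0 (none) to 100 (total) scale.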

[2] = test system: corn (Zea mays); assay: Test G Pre-Emergence Protocol; conditions: Zea mays, pre-emergence, 312 h, evaluated after 13 days; for plant injury at 15.625 g/ha: 15.625 g ai/ha; for plant injury at 15.625 g/ha / plant injury at 250 g/ha: read-out: Corn damage rating (100=total damage to plant; 0=no damage to plant); for plant injury at 62.5 g/ha: 62.5 g ai/ha, 100=total damage to plant, 0=no damage to plant, read-out: plant damage rating, Corn; for plant injury at 250 g/ha: 250 g ai/ha
Method in brief: as §1

[3] = test system: giant foxtail (Setaria faberi); assay: Test G Pre-Emergence Protocol; conditions: Setaria faberi, pre-emergence, 312 h, evaluated after 13 days; for pest or weed control at 15.625 g/ha: 15.625 g ai/ha; for pest or weed control at 15.625 g/ha / pest or weed control at 250 g/ha: read-out: Foxtail, Giant damage rating (100=total damage to plant; 0=no damage to plant); for pest or weed control at 62.5 g/ha: 62.5 g ai/ha, 100=total damage to plant, 0=no damage to plant, read-out: plant damage rating, Foxtail, Giant; for pest or weed control at 250 g/ha: 250 g ai/ha
Method in brief: as §1

[4] = test system: ivy-leaved morning glory (Ipomoea hederacea); assay: Test G Pre-Emergence Protocol; conditions: Ipomoea, pre-emergence, 312 h, evaluated after 13 days; for pest or weed control at 15.625 g/ha: 15.625 g ai/ha, read-out: Morning-glory, Ivy-leaved damage rating (100=total damage to plant; 0=no damage to plant); for pest or weed control at 62.5 g/ha: 62.5 g ai/ha, 100=total damage to plant, 0=no damage to plant, read-out: plant damage rating, Morningglory, Ivy-leaved; for pest or weed control at 250 g/ha: 250 g ai/ha, read-out: Morningglory, Ivy-leaved damage rating (100=total damage to plant; 0=no damage to plant)
Method in brief: as §1

[5] = test system: redroot pigweed (Amaranthus retroflexus); assay: Test G Pre-Emergence Protocol; conditions: Amaranthus retroflexus, pre-emergence, 312 h, evaluated after 13 days; for pest or weed control at 15.625 g/ha: 15.625 g ai/ha; for pest or weed control at 15.625 g/ha / pest or weed control at 250 g/ha: read-out: Pigweed, Redroot damage rating (100=total damage to plant; 0=no damage to plant); for pest or weed control at 62.5 g/ha: 62.5 g ai/ha, 100=total damage to plant, 0=no damage to plant, read-out: plant damage rating, Pigweed, Redroot; for pest or weed control at 250 g/ha: 250 g ai/ha
Method in brief: as §1

[6] = test system: velvetleaf (Abutilon theophrasti); assay: Test G Pre-Emergence Protocol; conditions: Abutilon theophrasti, pre-emergence, 312 h, evaluated after 13 days; for pest or weed control at 15.625 g/ha: 15.625 g ai/ha; for pest or weed control at 15.625 g/ha / pest or weed control at 250 g/ha: read-out: Velvetleaf damage rating (100=total damage to plant; 0=no damage to plant); for pest or weed control at 62.5 g/ha: 62.5 g ai/ha, 100=total damage to plant, 0=no damage to plant, read-out: plant damage rating, Velvetleaf; for pest or weed control at 250 g/ha: 250 g ai/ha
Method in brief: as §1

[7] = test system: barnyardgrass (Echinochloa crus-galli); assay: Test G Post-Emergence Protocol; conditions: Echinochloa crus-galli, post-emergence, 312 h; for pest or weed control at 15.625 g/ha: 15.625 g ai/ha, evaluated after 13 days (100=total damage to plant; 0=no damage to plant), read-out: Barnyardgrass damage rating; for pest or weed control at 62.5 g/ha: 62.5 g ai/ha, read-out: Barnyardgrass damage rating (100=total damage to plant; 0=no damage to plant); for pest or weed control at 62.5 g/ha / pest or weed control at 250 g/ha: evaluated after 13 days; for pest or weed control at 250 g/ha: 250 g ai/ha, read-out: damage to plant, Barnyardgrass (100=total damage to plant; 0=no damage to plant)
Method in brief: (§2)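 Seedlings grown 8 days in soil in a glasshouse (24/16 °C day/night, 14 h light, 65% humidity) were sprayed post-emergence with compound in acetone/water 50:50 plus 0.5% Tween 20 at 15.625, 62.5 or 250 g/ha. Damage was scored after 13 days on a 0–100 scale (100 = total damage).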

[8] = test system: corn (Zea mays); assay: Test G Post-Emergence Protocol; conditions: Zea mays, post-emergence, 312 h; for plant injury at 15.625 g/ha: 15.625 g ai/ha, evaluated after 13 days (100=total damage to plant; 0=no damage to plant), read-out: Corn damage rating; for plant injury at 62.5 g/ha: 62.5 g ai/ha, read-out: Corn damage rating (100=total damage to plant; 0=no damage to plant); for plant injury at 62.5 g/ha / plant injury at 250 g/ha: evaluated after 13 days; for plant injury at 250 g/ha: 250 g ai/ha, read-out: damage to plant, Corn (100=total damage to plant; 0=no damage to plant)
Method in brief: as §2

[9] = test system: giant foxtail (Setaria faberi); assay: Test G Post-Emergence Protocol; conditions: Setaria faberi, post-emergence, 312 h; for pest or weed control at 15.625 g/ha: 15.625 g ai/ha, evaluated after 13 days (100=total damage to plant; 0=no damage to plant), read-out: Foxtail, Giant damage rating; for pest or weed control at 62.5 g/ha: 62.5 g ai/ha, read-out: Foxtail, Giant damage rating (100=total damage to plant; 0=no damage to plant); for pest or weed control at 62.5 g/ha / pest or weed control at 250 g/ha: evaluated after 13 days; for pest or weed control at 250 g/ha: 250 g ai/ha, read-out: damage to plant, Foxtail, Giant (100=total damage to plant; 0=no damage to plant)
Method in brief: as §2

[10] = test system: ivy-leaved morning glory (Ipomoea hederacea); assay: Test G Post-Emergence Protocol; conditions: Ipomoea, post-emergence, 312 h; for pest or weed control at 15.625 g/ha: 15.625 g ai/ha, evaluated after 13 days (100=total damage to plant; 0=no damage to plant), read-out: Morningglory, Ivy-leaved damage rating; for pest or weed control at 62.5 g/ha: 62.5 g ai/ha, read-out: Morningglory, Ivy-leaved damage rating (100=total damage to plant; 0=no damage to plant); for pest or weed control at 62.5 g/ha / pest or weed control at 250 g/ha: evaluated after 13 days; for pest or weed control at 250 g/ha: 250 g ai/ha, read-out: damage to plant, Morningglory, Ivy-leaved (100=total damage to plant; 0=no damage to plant)
Method in brief: as §2

[11] = test system: redroot pigweed (Amaranthus retroflexus); assay: Test G Post-Emergence Protocol; conditions: Amaranthus retroflexus, post-emergence, 312 h; for pest or weed control at 15.625 g/ha: 15.625 g ai/ha, evaluated after 13 days (100=total damage to plant; 0=no damage to plant), read-out: Pigweed, Redroot damage rating; for pest or weed control at 62.5 g/ha: 62.5 g ai/ha, read-out: Pigweed, Redroot damage rating (100=total damage to plant; 0=no damage to plant); for pest or weed control at 62.5 g/ha / pest or weed control at 250 g/ha: evaluated after 13 days; for pest or weed control at 250 g/ha: 250 g ai/ha, read-out: damage to plant, Pigweed, Redroot (100=total damage to plant; 0=no damage to plant)
Method in brief: as §2

[12] = test system: velvetleaf (Abutilon theophrasti); assay: Test G Post-Emergence Protocol; conditions: Abutilon theophrasti, post-emergence, 312 h; for pest or weed control at 15.625 g/ha: 15.625 g ai/ha, evaluated after 13 days (100=total damage to plant; 0=no damage to plant), read-out: Velvetleaf damage rating; for pest or weed control at 62.5 g/ha: 62.5 g ai/ha, read-out: Velvetleaf damage rating (100=total damage to plant; 0=no damage to plant); for pest or weed control at 62.5 g/ha / pest or weed control at 250 g/ha: evaluated after 13 days; for pest or weed control at 250 g/ha: 250 g ai/ha, read-out: damage to plant, Velvetleaf (100=total damage to plant; 0=no damage to plant)
Method in brief: as §2

In the case of `Cc1ccc(NC(=O)[C@H]2C(=O)N(C)C[C@@H]2c2ccc(C(F)(F)F)cc2)nc1` (racemic) [Compound 1484], the pest or weed control at 15.625 g/ha [1] is reported as 0%, the pest or weed control at 62.5 g/ha [1] is reported as 10% and the pest or weed control at 250 g/ha [1] is reported as 30%. For the same compound, the plant injury at 15.625 g/ha [2] was 20%, the plant injury at 62.5 g/ha [2] was 10% and the plant injury at 250 g/ha [2] was 30%. It also gave a pest or weed control at 15.625 g/ha [3] of 10%, a pest or weed control at 62.5 g/ha [3] of 10% and a pest or weed control at 250 g/ha [3] of 30%. For the same compound, the pest or weed control at 15.625 g/ha [4] was 0%, the pest or weed control at 62.5 g/ha [4] was 0% and the pest or weed control at 250 g/ha [4] was 0%. The pest or weed control at 15.625 g/ha [5] was 0%, the pest or weed control at 62.5 g/ha [5] was 0% and the pest or weed control at 250 g/ha [5] was 20%. For the same compound, the pest or weed control at 15.625 g/ha [6] was 0%, the pest or weed control at 62.5 g/ha [6] was 0% and the pest or weed control at 250 g/ha [6] was 0%. For the same compound, the pest or weed control at 15.625 g/ha [7] was 20%, the pest or weed control at 62.5 g/ha [7] was 20% and the pest or weed control at 250 g/ha [7] was 40%. For the same compound, the plant injury at 15.625 g/ha [8] was 20%, the plant injury at 62.5 g/ha [8] was 0% and the plant injury at 250 g/ha [8] was 30%. It also gave a pest or weed control at 15.625 g/ha [9] of 10%, a pest or weed control at 62.5 g/ha [9] of 10% and a pest or weed control at 250 g/ha [9] of 30%. The pest or weed control at 15.625 g/ha [10] was 0%, the pest or weed control at 62.5 g/ha [10] was 0% and the pest or weed control at 250 g/ha [10] was 0%. The pest or weed control at 15.625 g/ha [11] was 10%, the pest or weed control at 62.5 g/ha [11] was 0% and the pest or weed control at 250 g/ha [11] was 20%. For the same compound, the pest or weed control at 15.625 g/ha [12] was 0%, the pest or weed control at 62.5 g/ha [12] was 0% and the pest or weed control at 250 g/ha [12] was 10%.

`CN1C[C@@H](c2cc(Cl)nc(C(F)(F)F)c2)[C@H](C(=O)Nc2cccc(F)c2F)C1=O` (racemic) [Compound 1485] gave a pest or weed control at 15.625 g/ha [1] of 60%, a pest or weed control at 62.5 g/ha [1] of 90% and a pest or weed control at 250 g/ha [1] of 90%. It also gave a plant injury at 15.625 g/ha [2] of 40%, a plant injury at 62.5 g/ha [2] of 70% and a plant injury at 250 g/ha [2] of 80%. It also gave a pest or weed control at 15.625 g/ha [3] of 60%, a pest or weed control at 62.5 g/ha [3] of 90% and a pest or weed control at 250 g/ha [3] of 90%. It also gave a pest or weed control at 15.625 g/ha [4] of 0%, a pest or weed control at 62.5 g/ha [4] of 0% and a pest or weed control at 250 g/ha [4] of 0%. For the same compound, the pest or weed control at 15.625 g/ha [5] was 0%, the pest or weed control at 62.5 g/ha [5] was 30% and the pest or weed control at 250 g/ha [5] was 60%. For the same compound, the pest or weed control at 15.625 g/ha [6] was 0%, the pest or weed control at 62.5 g/ha [6] was 0% and the pest or weed control at 250 g/ha [6] was 30%. It also gave a pest or weed control at 15.625 g/ha [7] of 50%, a pest or weed control at 62.5 g/ha [7] of 70% and a pest or weed control at 250 g/ha [7] of 70%. The plant injury at 15.625 g/ha [8] was 40%, the plant injury at 62.5 g/ha [8] was 70% and the plant injury at 250 g/ha [8] was 80%. It also gave a pest or weed control at 15.625 g/ha [9] of 60%, a pest or weed control at 62.5 g/ha [9] of 70% and a pest or weed control at 250 g/ha [9] of 70%. It also gave a pest or weed control at 15.625 g/ha [10] of 0%, a pest or weed control at 62.5 g/ha [10] of 0% and a pest or weed control at 250 g/ha [10] of 20%. For the same compound, the pest or weed control at 15.625 g/ha [11] was 0%, the pest or weed control at 62.5 g/ha [11] was 20% and the pest or weed control at 250 g/ha [11] was 40%. The pest or weed control at 15.625 g/ha [12] was 0%, the pest or weed control at 62.5 g/ha [12] was 10% and the pest or weed control at 250 g/ha [12] was 20%.
